Values of other authors in patent US20210319872A1, “DRUG AND DEVICE COMBINATION PRODUCTS WITH IMPROVED SAFETY AND EFFICACY PROFILES” (priority 2016, published 2021).

Assays:
[1] = in vivo
subjects = details: 16 subjects after 15-mg dose, pilot and main studies, FIG. 31 B
[2] = patients who had been started on the drug

| SMILES | Abdominal pain [1] | Chest pain [1] | Fever [1] | Headache [1] | Heart failure [1] | Hypersensitivity reaction [1] | Hypotension [1] | Opioid withdrawal [1] | ST segment depression [1] | Serious side effect, Gastrointestinal [1] | Serious side effect, Other [1] | Serious side effect, Respiratory [1] | Somnolence [1] | Sweating [1] | Syncope [1] | individual time course of pupil diameter (subjects) | Digoxin toxicity, times more likely [2] |
| --- | --- | --- | --- | --- | --- | --- | --- | --- | --- | --- | --- | --- | --- | --- | --- | --- | --- |
| COc1ccc2c3c1O[C@H]1C(=O)CC[C@@]4(O)[C@@H](C2)N(C)CC[C@]314 [oxycodone, reference compound] | Gastrointestinal: Abdominal pain (up to 5%), Constipation (Adults, | Cardiovascular: Cardiac arrest, Chest pain (less than 1%), Heart | Other: Fever (Adults, up to 5%; pediatrics, 11%) | (Adults, 3% or greater; pediatrics, 14%), Somnolence (controlled- | failure (less than 3%), Hypotension (less than 3%), Shock, ST | Immunologic: Hypersensitivity reaction (less than 3%) | failure (less than 3%), Hypotension (less than 3%), Shock, ST | Opioid withdrawal (1% to 5%) | segment depression (less than 1%), Syncope (less than 1%) | Gastrointestinal: Bowel obstruction, Diverticulitis, Exacerbation | Other: Drug withdrawal syndrome in neonate of dependent mother, | Respiratory: Respiratory depression | release, 23%; immediate-release, 3% or greater) | (controlled-release, 5%; immediate-release, less than 3%) | segment depression (less than 1%), Syncope (less than 1%) | does not move into “pinpoint pupils”, overdose, or mydriasis |  |
| CC[C@H]1OC(=O)[C@H](C)[C@@H](O[C@H]2C[C@@](C)(OC)[C@@H](O)[C@H](C)O2)[C@H](C)[C@@H](O[C@@H]2O[C@H](C)C[C@H](N(C)C)[C@H]2O)[C@](C)(OC)C[C@@H](C)C(=O)[C@H](C)[C@@H](O)[C@]1(C)O [clarithromycin] |  |  |  |  |  |  |  |  |  |  |  |  |  |  |  |  | 12 times |
